Test results: ChEMBL document CHEMBL2417425, “Design and synthesis of positional isomers of 5 and 6-bromo-1-[(phenyl)sulfonyl]-2-[(4-nitrophenoxy)methyl]-1H-benzimidazoles as possible antimicrobial and antitubercular agents” (2013)
In brackets after ≈: the same amount, converted by molar mass.

Tested on: Mycobacterium tuberculosis
Assay: Antimycobacterial activity against multidrug-resistant Mycobacterium tuberculosis assessed as growth inhibition at 0.3125 to 5 ug/mL by resazurin assay
Assay type: functional

Row | SMILES | MIC
1 | N#Cc1cccc(S(=O)(=O)n2c(COc3ccc([N+](=O)[O-])cc3)nc3cc(Br)ccc32)c1 | > 50 µg/mL
2 | Cc1c(F)cccc1S(=O)(=O)n1c(COc2ccc([N+](=O)[O-])cc2)nc2cc(Br)ccc21 | > 50 µg/mL
3 | O=[N+]([O-])c1ccc(OCc2nc3cc(Br)ccc3n2S(=O)(=O)c2ccccc2Cl)cc1 | 6.25 µg/mL (≈ 12 µM)
4 | COc1ccc(S(=O)(=O)n2c(COc3ccc([N+](=O)[O-])cc3)nc3cc(Br)ccc32)c(OC)c1 | > 50 µg/mL
5 | Cc1cccc(S(=O)(=O)n2c(COc3ccc([N+](=O)[O-])cc3)nc3cc(Br)ccc32)c1 | > 50 µg/mL
6 | COc1ccc(OC)c(S(=O)(=O)n2c(COc3ccc([N+](=O)[O-])cc3)nc3ccc(Br)cc32)c1 | 25 µg/mL (≈ 45.6 µM)
7 | O=[N+]([O-])c1ccc(OCc2nc3ccc(Br)cc3n2S(=O)(=O)c2cc(F)ccc2F)cc1 | > 50 µg/mL
8 | O=[N+]([O-])c1ccc(OCc2nc3ccc(Br)cc3n2S(=O)(=O)c2cc(Cl)ccc2Cl)cc1 | > 50 µg/mL
9 | O=[N+]([O-])c1ccc(OCc2nc3ccc(Br)cc3n2S(=O)(=O)c2ccccc2[N+](=O)[O-])cc1 | > 50 µg/mL
10 | N#Cc1cccc(S(=O)(=O)n2c(COc3ccc([N+](=O)[O-])cc3)nc3ccc(Br)cc32)c1 | > 50 µg/mL
11 | Cc1c(F)cccc1S(=O)(=O)n1c(COc2ccc([N+](=O)[O-])cc2)nc2ccc(Br)cc21 | > 50 µg/mL
12 | COc1ccc(S(=O)(=O)n2c(COc3ccc([N+](=O)[O-])cc3)nc3ccc(Br)cc32)c(OC)c1 | 2.5 µg/mL (≈ 4.56 µM)
13 | Cc1cccc(S(=O)(=O)n2c(COc3ccc([N+](=O)[O-])cc3)nc3ccc(Br)cc32)c1 | > 50 µg/mL
14 | Nc1ccc(OCc2nc3cc(Br)ccc3[nH]2)cc1 | 25 µg/mL (≈ 78.6 µM)
15 | COc1ccc(OC)c(S(=O)(=O)n2c(COc3ccc([N+](=O)[O-])cc3)nc3cc(Br)ccc32)c1 | > 50 µg/mL
16 | O=[N+]([O-])c1ccc(OCc2nc3cc(Br)ccc3n2S(=O)(=O)c2cc(F)ccc2F)cc1 | 6.25 µg/mL (≈ 11.9 µM)
17 | O=[N+]([O-])c1ccc(OCc2nc3cc(Br)ccc3n2S(=O)(=O)c2ccc(Cl)cc2Cl)cc1 | > 50 µg/mL
18 | O=[N+]([O-])c1ccc(OCc2nc3cc(Br)ccc3n2S(=O)(=O)c2cc(Cl)ccc2Cl)cc1 | > 50 µg/mL
19 | O=[N+]([O-])c1ccc(OCc2nc3cc(Br)ccc3n2S(=O)(=O)c2ccccc2[N+](=O)[O-])cc1 | 6.25 µg/mL (≈ 11.7 µM)
20 | NNC(=O)c1ccncc1 [ISONIAZID] | 12.5 µg/mL (≈ 91.1 µM)
21 | CO[C@H]1/C=C/O[C@@]2(C)Oc3c(C)c(O)c4c(O)c(c(/C=N/N5CCN(C)CC5)c(O)c4c3C2=O)NC(=O)/C(C)=C\C=C\[C@H](C)[C@H](O)[C@@H](C)[C@@H](O)[C@@H](C)[C@H](OC(C)=O)[C@@H]1C [RIFAMPIN] | 25 µg/mL (≈ 30.4 µM)
